Measured values from patent US20220275387A1, “TRANSCRIPTION FACTOR NtERF221 AND METHODS OF USING THE SAME” (University of Virginia Patent Foundation, priority 2019, published 2022).
Entries after “also recorded” stand apart in the source; their conditions may differ.

Tests used:
[1] = system: Nicotiana tabacum L. var. K326; experiment: TLC assay for nicotine accumulation in leaves of T2 overexpression lines; assay type: in vivo; conditions: T2 transgenic plants, 5-week-old, constitutive or conditional overexpression
Method: (§1) Plant materials and transformation. Tobacco plants (Nicotiana tabacum L. var. K326) were used for all the tests and genetic transformations described herein. Wild-type or transgenic seeds were germinated on Murashige and Skoog (MS) plates. For quantitative RT-PCR, germinated small seedlings were transferred onto larger MS plates and grown vertically until two weeks old before treated with 0.1% DMSO (control) or 100 μM MeJA. For TLC and GC-MS analysis, germinated seedlings were transferred in soil and grown under normal condition till five weeks old before DMSO or MeJA treatment. […]
Each gene was put into three different expression constructs respectively under the control of three different promoters described above (FIG. 3A). […] For each construct, at least eight lines were confirmed to have the transgene stably integrated into the genome by genomic PCR, the intact structure of the transgene was validated and relative level of transgene expression measured by RT-PCR using gene specific primers as is standard practice. The level of nicotine was assessed by TLC analysis to quickly identify the transformants with higher nicotine accumulation than the wild-type. […] T1 lines were similarly self-pollinated and the resulting T2 plants analyzed. […]

[2] = system: Nicotiana tabacum L. var. K326; experiment: GC-MS quantification of nicotine in leaf of wild-type and transgenic tobacco; assay type: in vivo; conditions: five-week-old plants, DMSO or MeJA
Method: as §1, with “treatment. Agrobacterium tumefaciens strain LBA4404 harboring each transgenic vector was used for genetic transformation of tobacco following the experiment procedure described previously (Horsch et al., 1985). At least eight T0 transgenic plants were confirmed by genomic DNA PCR and then self-pollinated to produce T1 generation.” for “treatment.”
Gas chromatography-mass spectrometry (GC-MS). […] Nicotine concentration was measured on a Shimadzu GCMS QP2010 plus system with a protocol developed previously (Goossens et al., (2003); Zhang et al., (2012)). […]
To further quantify nicotine concentration for the comparison between transgenic lines and the wild-types, GC-MS analysis was applied with total alkaloids extracted from the leaf tissue of five-week-old wild-type or transgenic plants treated with DMSO (control) or MeJA. […]

[3] = system: NtAO, NtODC, NtPMT, NtQPT, and NtQS; experiment: RT-qPCR of nicotine biosynthesis structural genes in transgenic tobacco seedlings; assay type: in vivo, Nicotiana tabacum; conditions: two-week-old seedlings, 100 μM MeJA for 8 hours, normalized to NtEF-1α
Method: as §1, with “treatment. Agrobacterium tumefaciens strain LBA4404 harboring each transgenic vector was used for genetic transformation of tobacco following the experiment procedure described previously (Horsch et al., 1985). At least eight T0 transgenic plants were confirmed by genomic DNA PCR and then self-pollinated to produce T1 generation.” for “treatment.”
RNA isolation and quantitative reverse transcription-PCR (RT-qPCR). […] The DNA-eliminated total RNA was then reverse-transcribed using QuantiTect reverse transcription kit (Qiagen). Quantitative PCR was conducted iTaq™ Universal SYBR® Green supermix (Bio-Rad Laboratories) on an CFX96™ Real-Time PCR detection system (Bio-Rad Laboratories). […]

## NtERF221: AP2/ERF family transcription factor transgene (CQ808982, SEQ ID NO: 1) overexpressed in tobacco K326
[1]
  nicotine accumulation versus wild-type (TLC): significantly elevated nicotine accumulation
[2]
  nicotine concentration in the leaf, comparison among transgenic lines: highest nicotine concentration
[3]
  JA-induced transcript accumulation of NtAO, NtODC, NtPMT, NtQPT, and NtQS versus wild-type: far greater; also recorded: greatly up-regulated
